From ChEMBL document CHEMBL1201862, “PubChem BioAssay data set” (2004)
Structures can show the parent of a compound that is named as a salt.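 These data come from cells grown in 96-well plates and exposed to compound for 48 hours at five concentrations. GI50 = concentration required for 50% inhibition of growth.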 Active and inactive are the calls of the source. Rule as the data show it: active = GI50 up to about 1.1 µM and inactive = higher.

Columns and labels:
Assay in all cases: growth of human tumour cells (NCI), 48 h
RPMI-8226 = tested on: RPMI-8226
ACHN = tested on: ACHN
NCI-H522 = tested on: NCI-H522
UO-31 = tested on: UO-31
T47D = tested on: T47D
MDA-N = tested on: MDA-N
SK-OV-3 = tested on: SK-OV-3
NCI/ADR-RES = tested on: NCI/ADR-RES
SF-295 = tested on: SF-295
MCF7 = tested on: MCF7
RXF 393 = tested on: RXF 393
HT-29 = tested on: HT-29
CCRF-CEM = tested on: CCRF-CEM
MDA-MB-231 = tested on: MDA-MB-231
SK-MEL-5 = tested on: SK-MEL-5
M14 = tested on: M14
TK-10 = tested on: TK-10
HCC 2998 = tested on: HCC 2998
SK-MEL-28 = tested on: SK-MEL-28

Measured: GI50

Cn1c2cn[nH]c(=O)c2c2ccc3ccccc3c21
inactive: RPMI-8226 60.3 µM | ACHN 16.9 µM | NCI-H522 16.9 µM | UO-31 16.1 µM | T47D > 100 µM | MDA-N > 100 µM | SK-OV-3 28.8 µM | NCI/ADR-RES 84.1 µM | SF-295 18.9 µM | MCF7 30.2 µM | RXF 393 19.3 µM | HT-29 37.3 µM | CCRF-CEM 59.2 µM | MDA-MB-231 15.4 µM | SK-MEL-5 31.5 µM | M14 > 100 µM | TK-10 49.8 µM

CC1=NN(C(=O)CC(=O)NC(=O)/C=C\c2ccccc2)C(=O)C1/N=N/c1ccc([N+](=O)[O-])cc1 (stereo unspecified)
inactive: HCC 2998 > 100 µM | RPMI-8226 85.5 µM | ACHN 37.4 µM | UO-31 48 µM | T47D > 100 µM | MDA-N > 100 µM | SK-OV-3 > 100 µM | SK-MEL-28 > 100 µM | NCI/ADR-RES > 100 µM | SF-295 53.6 µM | MCF7 > 100 µM | RXF 393 > 100 µM | HT-29 > 100 µM | CCRF-CEM 42 µM | MDA-MB-231 > 100 µM | M14 > 100 µM | TK-10 48.5 µM

Cc1n[nH]c(=O)n1/N=C/c1cccs1
inactive: HCC 2998 > 100 µM | RPMI-8226 > 100 µM | ACHN > 100 µM | UO-31 > 100 µM | T47D > 100 µM | MDA-N > 100 µM | SK-OV-3 > 100 µM | SK-MEL-28 > 100 µM | NCI/ADR-RES > 100 µM | SF-295 > 100 µM | MCF7 > 100 µM | RXF 393 > 100 µM | HT-29 > 100 µM | CCRF-CEM > 100 µM | MDA-MB-231 > 100 µM | M14 > 100 µM

CC1CC/C(=C\c2ccc(N(C)C)cc2)C(=O)/C1=C/c1ccc(N(C)C)cc1 (stereo unspecified)
inactive: HCC 2998 > 100 µM | ACHN > 100 µM | NCI-H522 > 100 µM | UO-31 > 100 µM | T47D > 100 µM | MDA-N > 100 µM | SK-OV-3 > 100 µM | SK-MEL-28 > 100 µM | NCI/ADR-RES > 100 µM | SF-295 > 100 µM | MCF7 > 100 µM | HT-29 > 100 µM | CCRF-CEM > 100 µM | MDA-MB-231 > 100 µM | SK-MEL-5 > 100 µM | M14 > 100 µM | TK-10 > 100 µM

CCOC(=O)CCCSCCCC(=O)CCCSCCCC(=O)OCC
inactive: HCC 2998 > 100 µM | NCI-H522 > 100 µM | UO-31 > 100 µM | T47D > 100 µM | MDA-N > 100 µM | SK-OV-3 > 100 µM | SK-MEL-28 > 100 µM | NCI/ADR-RES > 100 µM | SF-295 > 100 µM | MCF7 > 100 µM | HT-29 > 100 µM | CCRF-CEM > 100 µM | MDA-MB-231 > 100 µM | SK-MEL-5 > 100 µM | M14 > 100 µM | TK-10 > 100 µM

O=C(/C=C/c1ccccc1)Oc1ccc(C(=O)/C=C/c2ccc(Cl)cc2)cc1
inactive: HCC 2998 41.3 µM | RPMI-8226 43.3 µM | ACHN > 100 µM | UO-31 63.8 µM | T47D 66.7 µM | MDA-N 37.2 µM | SK-OV-3 > 100 µM | SK-MEL-28 > 100 µM | NCI/ADR-RES 46.5 µM | SF-295 82.6 µM | MCF7 36.4 µM | RXF 393 97.3 µM | HT-29 > 100 µM | CCRF-CEM 17.4 µM | MDA-MB-231 > 100 µM | SK-MEL-5 83.4 µM | M14 > 100 µM | TK-10 > 100 µM

CN(C)/C=N/c1ccc2[nH]c3ccccc3c2c1
inactive: RPMI-8226 22.6 µM | ACHN 48.1 µM | UO-31 29 µM | T47D 30.6 µM | MDA-N 18.2 µM | SK-OV-3 61.7 µM | SK-MEL-28 23.3 µM | NCI/ADR-RES 53.7 µM | SF-295 31.3 µM | MCF7 32.1 µM | RXF 393 25.8 µM | HT-29 19.8 µM | CCRF-CEM 30.9 µM | MDA-MB-231 19.8 µM | SK-MEL-5 16.7 µM | M14 15.1 µM | TK-10 28.2 µM

CC(=O)OCc1cc(=O)n2c([nH]c3ccccc32)c1C#N
inactive: HCC 2998 42.6 µM | ACHN 52.4 µM | UO-31 78.3 µM | T47D 78.5 µM | MDA-N > 100 µM | SK-OV-3 80.7 µM | SK-MEL-28 82.6 µM | NCI/ADR-RES > 100 µM | SF-295 58.3 µM | MCF7 > 100 µM | RXF 393 59.3 µM | HT-29 79.4 µM | CCRF-CEM 19.3 µM | MDA-MB-231 48.4 µM | SK-MEL-5 49.9 µM | M14 61.8 µM | TK-10 82.4 µM

Cn1c(COC(=O)NC2CCCCC2)c(COC(=O)NC2CCCCC2)c2ccc3cc(Cl)c(Cl)cc3c21
inactive: HCC 2998 13.7 µM | ACHN 14.3 µM | UO-31 28.4 µM | T47D 5.37 µM | MDA-N 12.6 µM | SK-OV-3 22 µM | SK-MEL-28 12.5 µM | NCI/ADR-RES 53.1 µM | SF-295 22.8 µM | MCF7 4.03 µM | RXF 393 6.12 µM | HT-29 27.5 µM | CCRF-CEM 3.27 µM | MDA-MB-231 10.2 µM | SK-MEL-5 11.7 µM | M14 16.5 µM | TK-10 16.7 µM

C=C1C[C@@H]2CC[C@@]34C[C@H]5O[C@H]6[C@@H](O3)[C@H]3O[C@H](CC[C@@H]3O[C@H]6[C@H]5O4)CC(=O)C[C@@H]3[C@@H](OC)[C@@H](C[C@H](O)CN)O[C@H]3C[C@H]3O[C@@H](CC[C@@H]1O2)C[C@@H](C)C3=C [ERIBULIN MESYLATE]
active: HCC 2998 0.00201 µM | RPMI-8226 0.000516 µM | ACHN 0.0556 µM | NCI-H522 0.00025 µM | UO-31 0.126 µM | T47D < 0.0001 µM | MDA-N 7.59e-05 µM | SK-OV-3 0.000558 µM | SK-MEL-28 0.00361 µM | NCI/ADR-RES 0.294 µM | SF-295 0.0065 µM | MCF7 0.000383 µM | HT-29 0.000352 µM | MDA-MB-231 0.00255 µM | SK-MEL-5 0.000877 µM | M14 0.00309 µM | TK-10 0.0815 µM

O=c1[nH]nc(-c2cccc([N+](=O)[O-])c2)[nH]1
inactive: HCC 2998 > 100 µM | RPMI-8226 > 100 µM | ACHN > 100 µM | NCI-H522 > 100 µM | UO-31 70.3 µM | T47D > 100 µM | MDA-N > 100 µM | SK-MEL-28 > 100 µM | NCI/ADR-RES > 100 µM | SF-295 > 100 µM | MCF7 > 100 µM | RXF 393 > 100 µM | HT-29 > 100 µM | CCRF-CEM > 100 µM | M14 > 100 µM | TK-10 > 100 µM

CCOP(=O)(OCC)/C(C#N)=C(\C)c1ccco1
inactive: HCC 2998 > 10 µM | RPMI-8226 > 10 µM | ACHN > 10 µM | UO-31 > 10 µM | T47D > 10 µM | MDA-N > 10 µM | SK-OV-3 > 10 µM | SK-MEL-28 > 10 µM | NCI/ADR-RES > 10 µM | SF-295 > 10 µM | MCF7 > 10 µM | RXF 393 > 10 µM | HT-29 > 10 µM | CCRF-CEM > 10 µM | MDA-MB-231 > 10 µM | SK-MEL-5 > 10 µM | M14 > 10 µM | TK-10 > 10 µM

O=C1C=CC2(C=C1)O[C@H](CCc1ccccc1)[C@@H](CCc1ccccc1)O2
inactive: RPMI-8226 82 µM | ACHN > 100 µM | UO-31 > 100 µM | T47D 76.4 µM | MDA-N > 100 µM | SK-OV-3 > 100 µM | SK-MEL-28 > 100 µM | NCI/ADR-RES > 100 µM | SF-295 > 100 µM | MCF7 > 100 µM | RXF 393 24.3 µM | HT-29 > 100 µM | CCRF-CEM > 100 µM | MDA-MB-231 > 100 µM | SK-MEL-5 > 100 µM | M14 > 100 µM | TK-10 > 100 µM

O=C(O)c1ccccc1SCc1cccc2c(=O)c3ccc(Cl)cc3oc12
inactive: HCC 2998 > 50 µM | RPMI-8226 > 50 µM | ACHN 32.4 µM | NCI-H522 29.2 µM | UO-31 > 50 µM | T47D > 50 µM | MDA-N > 50 µM | SK-OV-3 > 50 µM | SK-MEL-28 > 50 µM | NCI/ADR-RES > 50 µM | SF-295 20.2 µM | MCF7 > 50 µM | HT-29 > 50 µM | CCRF-CEM > 50 µM | MDA-MB-231 > 50 µM | SK-MEL-5 > 50 µM | M14 > 50 µM | TK-10 29.8 µM

[O-][n+]1c2cccc(O)c2[n+]([O-])c2cccc(O)c21
inactive: RPMI-8226 18.6 µM | ACHN 14.2 µM | NCI-H522 20.4 µM | UO-31 > 100 µM | T47D 40.2 µM | MDA-N > 100 µM | SK-OV-3 45.7 µM | NCI/ADR-RES 70.8 µM | SF-295 57.9 µM | MCF7 20.7 µM | RXF 393 60.4 µM | HT-29 > 100 µM | CCRF-CEM 5.56 µM | SK-MEL-5 53.5 µM | M14 > 100 µM | TK-10 23.4 µM

Cc1cnc(-n2c(C)nc3cc(Cl)ccc3c2=O)s1
inactive: HCC 2998 26.5 µM | ACHN 31 µM | NCI-H522 22 µM | UO-31 1.28 µM | T47D 21.3 µM | MDA-N 13 µM | SK-OV-3 > 100 µM | SK-MEL-28 49.7 µM | NCI/ADR-RES 28 µM | SF-295 37.1 µM | MCF7 17.9 µM | HT-29 32.7 µM | CCRF-CEM 31.5 µM | MDA-MB-231 42.5 µM | SK-MEL-5 16 µM | M14 31.6 µM | TK-10 43.1 µM
